Laboratory results published in patent US8173654B2, “Triazolopyridazine compounds” (Janssen Pharmaceutica N.V., priority 2005, dated 2012).

Columns and labels:
[1] = biological target: T1, c-Met (Homo sapiens, UniProt P08581); assay: Delfia autophosphorylation kinase assay on the c-Met; format: biochemical; parameters: The purified His6 tagged cytoplasmic domain of c-Met was diluted to a concentration of 500 ng/ml; host or cells: Sf9 insect cells (baculovirus, pFastBacHTa); details: His6 tagged cytoplasmic domain of c-Met, 1 μM ATP; read-out: cMet Delfia autophos IC-50
Protocol: A DELFIA time resolved fluorescence assay was developed for screening of compounds that decreases the autophosphorylation thus the kinase activity of c-Met. The DELFIA assay is non-radioactive. The autophosphorylation of the c-Met is measured by an anti-phosphotyrosine antibody coupled to an Europium tag.
A major advantage of this format is that it allowed for the development of an autophosphorylation assay using Ni-chelate plates which bind the hexa-his tag on the recombinant Met kinase. The autophosphorylation assay allows one to use a known substrate, Met kinase itself, for the phosphorylation.
The assay procedure for screening is as follows. The purified His6 tagged cytoplasmic domain of c-Met was diluted to a concentration of 500 ng/ml in enzyme dilution buffer (50 mM Tris-HCl, pH8.0, 0.1% BSA) and dispensed to assay plates at a volume of 50 μl per well. Black opaque HisGrab Nickel coated 96 well plates (Pierce, Rockford, Ill.) were selected for use. Next, 2.5 μl of compound in 40% DMSO was added to test wells, 2.5 μl of 40% DMSO only was added to the negative control wells. The autophosphorylation reaction was initiated upon the addition of 50 μl of reaction buffer, 50 mM Tris-HCl, pH 8.0, 10 mM MgCl2, 0.1 mM Na3VO4, 1 mM DTT, 1 μM ATP. Plates were incubated at room temperature for 1 hour followed by 2 washes with 200 μl/well of PBS. Europium conjugated anti-phosphotyrosine antibody, Eu-PY20 from Perkin Elmer was diluted to 50 ng/ml in Delfia AB buffer (Perkin Elmer, Boston, Mass.), added to the 96 well assay plates at a volume of 100 μl/well, and incubated at room temperature for 2 hours. Assay plates were then washed 4 times each with 200 μl/well of Delfia wash buffer (Perkin Elmer). After the final wash 150 μl of Delfia Enhancement solution (Perkin Elmer) was added to each well of the assay plate and incubated at room temperature for 1 hour. Plates were read on an LJL Analyst instrument (Molecular Devices; Sunnyvale, Calif.) with filter settings of 360 excitation, 620 emission, and 410 dichroic. IC50 values were calculated using Graphpad Prism software (Graphpad Software; San Diego, Calif.).
Target sequence in this assay (P08581 956-1390 limits assumed): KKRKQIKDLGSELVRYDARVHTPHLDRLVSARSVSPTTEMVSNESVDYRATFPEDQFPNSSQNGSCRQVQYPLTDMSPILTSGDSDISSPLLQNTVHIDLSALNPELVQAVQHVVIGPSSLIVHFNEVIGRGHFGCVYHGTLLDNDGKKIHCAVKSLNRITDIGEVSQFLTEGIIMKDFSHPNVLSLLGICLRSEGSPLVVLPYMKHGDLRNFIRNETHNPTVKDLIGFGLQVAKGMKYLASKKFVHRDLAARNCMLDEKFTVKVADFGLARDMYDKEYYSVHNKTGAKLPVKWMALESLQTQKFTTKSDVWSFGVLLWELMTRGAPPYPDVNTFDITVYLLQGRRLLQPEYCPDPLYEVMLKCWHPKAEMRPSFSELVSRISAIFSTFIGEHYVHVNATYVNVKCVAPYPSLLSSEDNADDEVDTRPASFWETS

[2] = biological target: T1, c-Met; assay: Cell based ELISA assay for HGF stimulated c-Met phosphorylation in S114 cells; parameters: expressed in transfected cells; host or cells: S114 (murine NIH 3T3 derived); details: read-out: c-Met Cell ELISA IC-50
Protocol: A cell based ELISA assay was developed to evaluate the ability of compounds to inhibit HGF stimulated c-Met phosphorylation in cells.
S114 cells were seeded to a 96 well tissue culture treated dish at a concentration of 5×10^4 per well. After a 16-20 hour incubation, culture medium was removed and replaced with serum free medium supplemented with 0.5% BSA. Test compound was then added and incubated with the cells for 60 minutes, followed by the addition of 1 μl HGF at […] for 15 minutes. […] Following another 1 hour incubation at room temperature the plates were washed three times with Delfia wash buffer (Perkin Elmer). After the final wash, […] of Delfia enhancer solution (Perkin Elmer) was added and allowed to incubate for 60 minutes. Plates were read on an LJL Analyst instrument (Molecular Devices; Sunnyvale, Calif.) with filter settings of 360 excitation, 620 emission, and 410 dichroic. IC50 values were calculated using Graphpad Prism software (Graphpad Software; San Diego, Calif.).
Target sequence in this assay (P08581 25-1390): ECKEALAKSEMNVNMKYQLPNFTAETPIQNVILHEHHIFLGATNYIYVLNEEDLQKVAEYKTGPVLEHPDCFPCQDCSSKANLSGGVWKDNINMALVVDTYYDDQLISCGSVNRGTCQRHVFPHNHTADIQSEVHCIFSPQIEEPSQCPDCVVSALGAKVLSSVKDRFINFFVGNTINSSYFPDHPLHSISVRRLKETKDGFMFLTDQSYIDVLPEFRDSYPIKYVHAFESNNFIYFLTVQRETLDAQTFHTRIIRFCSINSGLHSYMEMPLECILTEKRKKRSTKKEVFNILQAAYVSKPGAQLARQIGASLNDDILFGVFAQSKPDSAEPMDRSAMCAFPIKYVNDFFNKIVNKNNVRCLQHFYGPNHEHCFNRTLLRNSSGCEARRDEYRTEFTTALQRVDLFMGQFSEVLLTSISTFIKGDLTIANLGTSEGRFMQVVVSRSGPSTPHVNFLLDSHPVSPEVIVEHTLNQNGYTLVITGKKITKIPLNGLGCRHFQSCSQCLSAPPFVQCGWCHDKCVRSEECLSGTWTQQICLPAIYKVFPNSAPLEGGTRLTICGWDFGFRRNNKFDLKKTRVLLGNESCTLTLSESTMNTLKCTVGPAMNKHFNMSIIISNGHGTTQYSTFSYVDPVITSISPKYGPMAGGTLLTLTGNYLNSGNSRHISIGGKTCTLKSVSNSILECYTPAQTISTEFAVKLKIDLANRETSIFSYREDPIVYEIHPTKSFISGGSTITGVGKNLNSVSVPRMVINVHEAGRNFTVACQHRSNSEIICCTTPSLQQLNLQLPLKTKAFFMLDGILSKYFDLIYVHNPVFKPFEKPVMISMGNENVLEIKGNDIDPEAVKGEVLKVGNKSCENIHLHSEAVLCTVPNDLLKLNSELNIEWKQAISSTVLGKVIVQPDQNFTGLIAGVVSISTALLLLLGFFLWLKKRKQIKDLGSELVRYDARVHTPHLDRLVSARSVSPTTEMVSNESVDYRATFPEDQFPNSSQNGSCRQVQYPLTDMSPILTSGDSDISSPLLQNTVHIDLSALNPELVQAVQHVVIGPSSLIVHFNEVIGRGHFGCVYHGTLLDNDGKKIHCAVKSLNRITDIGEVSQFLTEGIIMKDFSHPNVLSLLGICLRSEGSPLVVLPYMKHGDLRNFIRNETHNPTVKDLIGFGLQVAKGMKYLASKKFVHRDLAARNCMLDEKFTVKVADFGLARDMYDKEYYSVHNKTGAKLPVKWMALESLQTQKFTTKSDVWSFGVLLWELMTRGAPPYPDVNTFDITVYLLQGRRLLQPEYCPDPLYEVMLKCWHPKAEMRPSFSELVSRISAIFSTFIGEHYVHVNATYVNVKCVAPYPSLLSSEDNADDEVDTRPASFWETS

| Compound | IC50 [1] [nM] | IC50 [2] [nM] |
| --- | --- | --- |
| CCCn1cc(-c2ccc3nnc(Cc4ccc5ncccc5c4)n3n2)cn1 [Example 9, 6-[6-(1-Propyl-1H-pyrazol-4-yl)-[1,2,4]triazolo[4,3-b]pyridazin-3-ylmethyl]-quinoline] | 1.6 | 48 |
| c1cncc(-c2ccc3nnc(Cc4ccc5ncccc5c4)n3n2)c1 [Example 11, 6-(6-Pyridin-3-yl-[1,2,4]triazolo[4,3-b]pyridazin-3-ylmethyl)-quinoline] | 6 | 86 |
| Nc1nc2ccc(Cc3nnc4ccc(-c5cccnc5)nn34)cc2s1 [Example 13, 6-(6-Pyridin-3-yl-[1,2,4]triazolo[4,3-b]pyridazin-3-ylmethyl)-benzothiazol-2-ylamine] | 15 | 215 |
| CS(=O)(=O)n1cc(-c2ccc3nnc(Cc4ccc5ncccc5c4)n3n2)cn1 [Example 15, 6-[6-(1-Methanesulfonyl-1H-pyrazol-4-yl)-[1,2,4]triazolo[4,3-b]pyridazin-3-ylmethyl]-quinoline] | 2 | 88 |
| COCCn1cc(-c2ccc3nnc(Cc4ccc5ncccc5c4)n3n2)cn1 [Example 16, 6-{6-[1-(2-Methoxy-ethyl)-1H-pyrazol-4-yl]-[1,2,4]triazolo[4,3-b]pyridazin-3-ylmethyl}-quinoline] | 9 | 295 |
| Oc1ccc(Cc2nnc3ccc(-c4nccs4)nn23)cc1 [Example 18, 4-(6-Thiazol-2-yl-[1,2,4]triazolo[4,3-b]pyridazin-3-ylmethyl)-phenol] | 10 | 86 |
| CCCc1ncc(-c2ccc3nnc(Cc4ccc5ncccc5c4)n3n2)s1 [Example 20, 6-[6-(2-Propyl-thiazol-5-yl)-[1,2,4]triazolo[4,3-b]pyridazin-3-ylmethyl]-quinoline] | 1 | 7 |
| c1csc(-c2ccc3nnc(Cc4ccc5c(c4)CCO5)n3n2)c1 [Example 22, 3-(2,3-Dihydro-benzofuran-5-ylmethyl)-6-thiophen-2-yl-[1,2,4]triazolo[4,3-b]pyridazine] | 15 | 9 |
| Cc1ccsc1-c1ccc2nnc(Cc3ccc4c(c3)CCO4)n2n1 [Example 23, 3-(2,3-Dihydro-benzofuran-5-ylmethyl)-6-(3-methyl-thiophen-2-yl)-[1,2,4]triazolo[4,3-b]pyridazine] | 41 | 113 |
| COc1ccc(Cc2nnc3ccc(-c4cccs4)nn23)cc1 [Example 25, 3-(4-Methoxy-benzyl)-6-thiophen-2-yl-[1,2,4]triazolo[4,3-b]pyridazine] | 41 | 483 |
| COc1ccc(Cc2nnc3ccc(-c4cccs4)nn23)cn1 [Example 31, 3-(6-Methoxy-pyridin-3-ylmethyl)-6-thiophen-2-yl-[1,2,4]triazolo[4,3-b]pyridazine] | 77 | 2400 |
| c1csc(-c2ccc3nnc(Cc4ccncc4)n3n2)c1 [Example 33, 3-Pyridin-4-ylmethyl-6-thiophen-2-yl-[1,2,4]triazolo[4,3-b]pyridazine] | 96 | 9900 |
| c1csc(-c2ccc3nnc(Cc4ccc5occc5c4)n3n2)c1 [Example 35, 3-Benzofuran-5-ylmethyl-6-thiophen-2-yl-[1,2,4]triazolo[4,3-b]pyridazine] | 9 | 75 |
| c1csc(-c2ccc3nnc(Cc4ccc5c(c4)OCO5)n3n2)c1 [Example 37, 3-Benzo[1,3]dioxol-5-ylmethyl-6-thiophen-2-yl-[1,2,4]triazolo[4,3-b]pyridazine] | 16 | 346 |
| Nc1nc2ccc(Cc3nnc4ccc(-c5cccs5)nn34)cc2s1 [Example 38, 6-(6-Thiophen-2-yl-[1,2,4]triazolo[4,3-b]pyridazin-3-ylmethyl)-benzothiazol-2-ylamine] | 0.45 | 2 |
| c1csc(-c2ccc3nnc(Cc4ccc5ncccc5c4)n3n2)c1 [Example 39, 6-(6-Thiophen-2-yl-[1,2,4]triazolo[4,3-b]pyridazin-3-ylmethyl)-quinoline] | 2 | 1 |
| c1cc2c(cc1Cc1nnc3ccc(-c4ccc(CN5CCOCC5)s4)nn13)CCO2 [Example 42, 3-(2,3-Dihydro-benzofuran-5-ylmethyl)-6-(5-morpholin-4-ylmethyl-thiophen-2-yl)-[1,2,4]triazolo[4,3-b]pyridazine] | 13 | 406 |
| c1cnc2ccc(Cc3nnc4ccc(-n5ccnc5)nn34)cc2c1 [Example 43, 6-(6-Imidazol-1-yl-[1,2,4]triazolo[4,3-b]pyridazin-3-ylmethyl)-quinoline] | 11 | 140 |
| Brc1cn(-c2ccc3nnc(Cc4ccc5ncccc5c4)n3n2)cn1 [Example 44, 6-[6-(4-Bromo-imidazol-1-yl)-[1,2,4]triazolo[4,3-b]pyridazin-3-ylmethyl]-quinoline] | 2 | 143 |
| CN1CCN(C(=O)c2ccc(-c3ccc4nnc(Cc5ccc6ncccc6c5)n4n3)s2)CC1 [Example 47, (4-Methyl-piperazin-1-yl)-[5-(3-quinolin-6-ylmethyl-[1,2,4]triazolo[4,3-b]pyridazin-6-yl)-thiophen-yl]-methanone] | 0.4 | 1 |
| CCOC(=O)c1ccc(-c2ccc3nnc(Cc4ccc(O)cc4)n3n2)s1 [Example 48, 5-[3-(4-Hydroxy-benzyl)-[1,2,4]triazolo[4,3-b]pyridazin-6-yl]-thiophene-2-carboxylic acid ethyl ester] | 2 | 14 |
| CN(C)CCCNC(=O)c1ccc(-c2ccc3nnc(Cc4ccc(O)cc4)n3n2)s1 [Example 49, 5-[3-(4-Hydroxy-benzyl)-[1,2,4]triazolo[4,3-b]pyridazin-6-yl]-thiophene-2-carboxylic acid (3-dimethylamino-propyl)-amide] | 2.1 | 343 |
| CN1CCN(C(=O)c2ccc(-c3ccc4nnc(Cc5ccc6c(c5)CCO6)n4n3)s2)CC1 [Example 50, {5-[3-(2,3-Dihydro-benzofuran-5-ylmethyl)-[1,2,4]triazolo[4,3-b]pyridazin-6-yl]-thiophen-2-yl}-(4-methyl-piperazin-1-yl)-methanone] | 2 | 12 |
| COCCN(CCOC)C(=O)c1ccc(-c2ccc3nnc(Cc4ccc5c(c4)CCO5)n3n2)s1 [Example 51, 5-[3-(2,3-Dihydro-benzofuran-5-ylmethyl)-[1,2,4]triazolo[4,3-b]pyridazin-6-yl]-thiophene-2-carboxylic acid bis-(2-methoxy-ethyl)-amide] | 0.2 | 8 |
| O=C(NCCN1CCOCC1)c1ccc(-c2ccc3nnc(Cc4ccc5c(c4)CCO5)n3n2)s1 [Example 52, 5-[3-(2,3-Dihydro-benzofuran-5-ylmethyl)-[1,2,4]triazolo[4,3-b]pyridazin-6-yl]-thiophene-2-carboxylic acid (2-morpholin-4-yl-ethyl)-amide] | 3 | 40 |
| CC(C)CCNC(=O)c1ccc(-c2ccc3nnc(Cc4ccc5c(c4)CCO5)n3n2)s1 [Example 53, 5-[3-(2,3-Dihydro-benzofuran-5-ylmethyl)-[1,2,4]triazolo[4,3-b]pyridazin-6-yl]-thiophene-2-carboxylic acid (3-methyl-butyl)-amide] | 4 | 35 |
| CC(C)N1CCN(C(=O)c2ccc(-c3ccc4nnc(Cc5ccc6ncccc6c5)n4n3)s2)CC1 [Example 55, (4-Isopropyl-piperazin-1-yl)-[5-(3-quinolin-6-ylmethyl-[1,2,4]triazolo[4,3-b]pyridazin-6-yl)-thiophen-2-yl]-methanone] | 1 | 1 |
